From patent US11136409B2, “Compositions and methods for identification, assessment, prevention, and treatment of AML using USP10 biomarkers and modulators” (Dana-Farber Cancer Institute, Inc., priority 2016, dated 2021)
pIC50: −log10 of the molar value. Like-named read-outs stand apart in the source and are kept apart here.

Assays:
USP7 = USP7 (Homo sapiens, UniProt Q93009); assay: USP7 IC50 of HBX19818 analogs (Table 9); format: biochemical; conditions: read-out: USP7 IC50 +/− SEM
Ba/F3-FLT3-ITD cells = assay: Immunoblot of FLT3 / Beclin-1 in Ba/F3-FLT3-ITD cells; format: cell-based, murine; conditions: immunoblot; Ba/F3-FLT3-ITD cells
Text: The following antibodies were purchased from Cell Signaling Technology (Danvers, Mass.): total AKT (rabbit, #9272) and total p44/42 MAPK (Erk1/2) (3A7) (mouse, #9107) were used at 1:1000 dilution. Anti-GAPDH (D16H-11) XP (R) (rabbit mAb, #5174) was used at 1:1000 dilution. Beclin-1 (rabbit, #3738) was used at 1:1000. USP10 (D7A5) (rabbit, #8501) was used at 1:1000 dilution. P53 (rabbit, #9282) was used at 1:1000 dilution. β-tubulin (rabbit, #2146s) was used 1:1000.
FLT3/Flk-2 (C-20) (sc-479) and Ub (P4D1) (mouse, sc-8017) were purchased from Santa Cruz Biotechnology, Inc. (Dallas, Tex.) and used at 1:1000 dilution for immunoblotting. Anti-pTyr (mouse, clone 4G10) was purchased from Upstate Biotechnology (Lake Placid, N.Y.) and was used at 1:1000 dilution. Anti-HAUSP/USP7 antibody (rabbit, ab4080) and anti-ubiquitin antibody (rabbit, ab7780) were purchased from Abcam (Cambridge, Mass.) and used at 1:1000 dilution.
Protein lysate preparation, immunoblotting, and immunoprecipitation were carried out as previously described in Weisberg et al. (2002) Cancer Cell 1:433-443.

[1] = target: T1, human USP10 (residues 376-798) (Homo sapiens, UniProt Q14694); assay: In vitro USP10 activity assay (Ubiquitin-AMC); format: biochemical; conditions: ubiquitin-AMC as substrate; purified enzyme; read-out: USP10 biochemical IC50
T1 construct: A construct of human USP10 covering residues 376-798 in the pET28a vector; His-tag (cleaved yes); made in house; host or cells: E. coli BL21 (DE3)
T1 sequence (Q14694 376-798): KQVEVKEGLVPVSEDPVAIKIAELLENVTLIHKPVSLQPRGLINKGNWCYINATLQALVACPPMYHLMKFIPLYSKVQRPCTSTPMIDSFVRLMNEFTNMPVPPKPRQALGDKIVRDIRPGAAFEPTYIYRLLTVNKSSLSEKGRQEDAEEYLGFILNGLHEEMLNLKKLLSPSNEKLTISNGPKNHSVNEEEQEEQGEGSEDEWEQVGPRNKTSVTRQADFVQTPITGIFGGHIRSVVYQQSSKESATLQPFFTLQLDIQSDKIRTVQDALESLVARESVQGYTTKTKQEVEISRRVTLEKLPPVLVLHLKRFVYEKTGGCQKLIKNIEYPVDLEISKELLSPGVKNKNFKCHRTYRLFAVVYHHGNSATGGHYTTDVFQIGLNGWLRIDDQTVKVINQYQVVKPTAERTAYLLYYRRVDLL
Protocol: Protein expression and purification. A construct of human USP10 covering residues 376-798 in the pET28a vector was over-expressed in E. coli BL21 (DE3) in TB medium in the presence of […] of kanamycin. Cells were grown at 37° C. to an OD of 0.8, cooled to 17° C., induced with 500 μM isopropyl-1-thio-D-galactopyranoside, incubated overnight at 17° C., collected by centrifugation, and stored at −80° C. Cell pellets were sonicated in buffer A (50 mM HEPES (pH 7.5), 300 mM NaCl, 10% glycerol, 10 mM Imidazole, and 3 mM BME) and the resulting lysate was centrifuged at 30,000×g for 30 min. Ni-NTA beads (Qiagen) were mixed with lysate supernatant for 30 min and washed with buffer A. Beads were transferred to an FPLC-compatible column and the bound protein was washed with 15% buffer B (50 mM HEPES (pH 7.5), 300 mM NaCl, 10% glycerol, 300 mM Imidazole, and 3 mM BME) and eluted with 100% buffer B. Thrombin was added to the eluted protein and incubated at 4° C. overnight. The sample was then passed through a HiPrep 26/10 desalting column (GE Healthcare) pre-equilibrated with buffer A without imidazole, and the eluted protein was subjected to a second Ni-NTA step to remove His-tag and Thrombin. The eluent was concentrated and passed through a Superdex® 200 10/300GL column (GE Healthcare) in a buffer containing 20 mM HEPES (pH 7.5), 150 mM NaCl, and 1 mM DTT. Fractions were pooled, concentrated to 20 mg/ml, and frozen at −80° C.
In vitro USP10 activity assay. Recombinant USP10, residues 376-798, was tested for its activity in a Ubiquitin-AMC assay in presence or absence of inhibitors. For this assay, 10 nM USP10 were pre-incubated with different concentrations of inhibitors or DMSO as a control in 50 mM HEPES pH7.6, 0.5 mM EDTA, 11 uM ovalbumin, and 5 mM DTT. The reaction was incubated for 6 hours at room temperature prior to the addition of 2 uM Ubiquitin-AMC (Boston Biochem) substrate. The initial rate of the reaction was measured by collecting fluorescence data at one minute intervals over 30-minute period using a CLARIOstar® fluorescence plate reader at excitation and emission wavelength of 345 and 445 nm, respectively. The calculated initial rate values were plotted against inhibitor concentrations to determine IC50 values.

MOLM14 = assay: Anti-proliferation, 24 hr treatment (CellTiter-Glo); format: cell-based, human; conditions: 24 hr treatment; MOLM14 (FLT3-ITD); read-out: Anti-proliferation IC50
Text: (§1) Nomo-1, P31-FUJ, and NB4 were obtained from Dr. Gary Gilliland. MV4, 11 cells were obtained from Dr. Anthony Letai. Hel, K562, THP, U937, TF-1 and K052 cells were purchased from the American Type Culture Collection (ATCC) (Manassas, Va., USA). […] Cell lines were submitted for cell line authentication and were authenticated within 6 months of manuscript preparation through cell line short tandem repeat (STR) profiling (DDC Medical, Fairfield, Ohio and Molecular Diagnostics Laboratory, Dana Farber Cancer Institute). […] PBMCs were generously provided by Dr. Steven Treon and Dr. Guang Yang.
(§2) The CellTiter-Glo® assay (Promega, Madison, Wis.) was used for proliferation studies and carried out according to manufacturer instructions. Cell viability is reported as percentage of control (untreated) cells, and error bars represent the standard error of the mean for each data point.

P31 = assay: as above; format: cell-based, human; conditions: 24 hr treatment; P31 (FLT3 wt or null); read-out: Anti-proliferation IC50
Text: as §1, §2

U937 = assay: as above; format: cell-based, human; conditions: 24 hr treatment; U937 (FLT3 wt or null); read-out: Anti-proliferation IC50
Text: as §1, §2

K562 = assay: as above; format: cell-based, human; conditions: 24 hr treatment; K562 (FLT3 wt or null); read-out: Anti-proliferation IC50
Text: as §1, §2

MOLM13-luc+ = assay: as above; format: cell-based, human; conditions: 24 hr treatment; MOLM13-luc+ (FLT3-ITD); read-out: Anti-proliferation IC50
Text: as §1, §2

OCI-AML5 = assay: as above; format: cell-based, human; conditions: 24 hr treatment; OCI-AML5 (FLT3 wt or null); read-out: Anti-proliferation IC50
Text: as §1, §2

TF-1 = assay: as above; format: cell-based, human; conditions: 24 hr treatment; TF-1 (FLT3 null); read-out: Anti-proliferation IC50
Text: as §1, §2

NOMO-1 = assay: as above; format: cell-based, human; conditions: 24 hr treatment; NOMO-1 (FLT3 wt or null); read-out: Anti-proliferation IC50
Text: as §1, §2

HEL = assay: as above; format: cell-based, human; conditions: 24 hr treatment; HEL (FLT3 wt or null); read-out: Anti-proliferation IC50
Text: as §1, §2

NB4-luc+ = assay: as above; format: cell-based, human; conditions: 24 hr treatment; NB4-luc+ (FLT3 wt or null); read-out: Anti-proliferation IC50
Text: as §1, §2

K052 = assay: as above; format: cell-based, human; conditions: 24 hr treatment; K052 (FLT3 wt or null); read-out: Anti-proliferation IC50
Text: as §1, §2

MV4,11 = assay: as above; format: cell-based, human; conditions: 24 hr treatment; MV4,11 (FLT3-ITD); read-out: Anti-proliferation IC50
Text: as §1, §2

[2] = system: AML primagraft (D835Y+, FLT3-ITD+) cells; assay: Treatment of mutant FLT3-expressing AML primagraft cells ex vivo; format: cell-based, human; conditions: read-out: IC50 (+/−S.D.) AML primagraft (D835Y+, FLT3-ITD+)
Protocol: All animal studies were performed according to protocols approved by the Dana-Farber Cancer Institute's Institutional Animal Care and Use Committee. […] Mice were sacrificed on day 21 of treatment. Bone marrow was flushed from mouse femurs, and spleens and livers were dissected and preserved first in formalin, followed 24 hours later by preservation in 70% ethanol. […] All AML primagraft samples used in the studies described herein were obtained through the Public Repository of Xenografts (proxe.org).
as §2

[3] = system: mutant FLT3-expressing cells; assay: Dynamic BH3 profiling (mitochondrial priming); format: cell-based, human; conditions: cytochrome c release in response to Bim peptide, 14 h; compared to wt or null FLT3-expressing cells
Protocol: To determine drug-induced changes in mitochondrial priming, dynamic BH3 profiling was performed as previously described in Montero et al. (2015) Cell 160:977-989 and Pan et al. (2014) Cancer Discov. 4:362-375. Briefly, 0.4×10^6 cells/well were exposed to drug treatment for 14 hours. At the end of incubation time, cells were washed in PBS, pelleted at 500×g for 5 min, and resuspended in MEB buffer. Fifteen μl of cell suspension was added to each well of 384 well plate containing 15 μl of MEB buffer containing 20 μg/mL digitonin and BH3 peptides at twice their final concentration, and the mixture was incubated for 60 min at 26° C. to allow mitochondrial depolarization. Peptide exposure was then terminated by adding 10 μl 4% formaldehyde in PBS for 15 min, followed by neutralization with N2 buffer (1.7M Tris, 1.25M glycine, pH 9.1) for 10 min. In order to determine cytochrome C levels, anti-cytochrome C clone 6H2.B4 conjugated to Alexa Fluor® 647 (BD Bioscience) was diluted 1:50 in 10× staining buffer (10% BSA, 2% Tween-20 and 0.02% sodium azide in PBS) and 10 μl of this antibody-containing buffer was added to each well for a final dilution of 1:400. Cells were stained overnight at 4° C. in dark and data were acquired on a BD LSRFortessa™ analyzer (BD Biosciences). Priming change (Δ) was calculated by comparing cytochrome C abundance in treated cells to that of DMSO-treated control cells.

PBMCs = assay: Treatment of PBMCs from healthy donors with USP10-targeting inhibitors; format: cell-based, human
Text: as §1, §2

Sequence of USP7 (Q93009 whole entry): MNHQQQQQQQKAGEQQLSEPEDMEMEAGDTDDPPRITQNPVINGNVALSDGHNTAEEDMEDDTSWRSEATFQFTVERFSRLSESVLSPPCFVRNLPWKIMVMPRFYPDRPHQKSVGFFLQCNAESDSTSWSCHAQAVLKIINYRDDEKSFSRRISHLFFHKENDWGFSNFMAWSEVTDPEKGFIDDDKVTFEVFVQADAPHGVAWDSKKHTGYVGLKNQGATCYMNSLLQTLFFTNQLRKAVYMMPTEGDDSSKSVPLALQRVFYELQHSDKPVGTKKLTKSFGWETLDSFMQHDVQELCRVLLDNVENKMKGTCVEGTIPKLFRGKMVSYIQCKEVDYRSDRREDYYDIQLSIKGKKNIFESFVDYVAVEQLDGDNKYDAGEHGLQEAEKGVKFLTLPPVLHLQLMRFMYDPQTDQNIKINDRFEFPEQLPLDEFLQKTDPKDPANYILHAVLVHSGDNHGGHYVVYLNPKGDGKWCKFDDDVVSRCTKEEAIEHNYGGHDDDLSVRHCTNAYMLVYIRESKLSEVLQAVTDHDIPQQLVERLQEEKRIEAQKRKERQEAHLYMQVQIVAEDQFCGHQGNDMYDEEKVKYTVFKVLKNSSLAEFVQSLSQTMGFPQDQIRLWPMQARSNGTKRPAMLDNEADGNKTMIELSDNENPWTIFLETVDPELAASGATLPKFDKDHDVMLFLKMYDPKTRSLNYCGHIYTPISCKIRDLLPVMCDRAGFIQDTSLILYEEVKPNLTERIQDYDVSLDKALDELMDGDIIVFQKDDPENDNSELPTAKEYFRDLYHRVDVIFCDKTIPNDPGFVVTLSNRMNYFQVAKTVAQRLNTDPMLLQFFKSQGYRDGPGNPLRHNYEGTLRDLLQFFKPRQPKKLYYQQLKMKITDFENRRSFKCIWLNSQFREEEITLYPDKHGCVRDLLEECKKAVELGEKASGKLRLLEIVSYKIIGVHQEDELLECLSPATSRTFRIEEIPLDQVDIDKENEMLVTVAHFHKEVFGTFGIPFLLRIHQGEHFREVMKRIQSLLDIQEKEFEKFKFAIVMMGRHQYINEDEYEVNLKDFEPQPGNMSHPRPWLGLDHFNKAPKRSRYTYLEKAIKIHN

## O=C(NCCc1ccc(Cl)cc1)c1ccc2nc3c(c(Cl)c2c1)CCCC3 [C598-0515]
USP7
  pIC50: < 4.00

## CCN(CCCNC(=O)c1ccc2nc3c(c(Cl)c2c1)CCCC3)c1ccccc1 [C598-0468]
Ba/F3-FLT3-ITD cells
  FLT3 protein levels: no effect on FLT3 levels
USP7
  pIC50: < 4.00
[1]
  pIC50: < 4.00

## CCN(CC)S(=O)(=O)c1ccc(NC(=O)c2ccc3nc4c(c(Cl)c3c2)CCCC4)cc1 [C598-0646]
USP7
  pIC50: < 4.00

## O=C(NCCN1CCN(Cc2ccccc2)CC1)c1ccc2nc3c(c(Cl)c2c1)CCCC3 [C598-0571]
MOLM14
  pIC50: 4.73
P31
  pIC50: 4.52
U937
  pIC50: 4.66
K562
  pIC50: 4.44
MOLM13-luc+
  pIC50: 4.90
OCI-AML5
  pIC50: 4.42
TF-1
  pIC50: 4.74
NOMO-1
  pIC50: 4.68
HEL
  pIC50: 4.39
NB4-luc+
  pIC50: 4.54
K052
  pIC50: 4.45
MV4,11
  pIC50: 5.04
[2]; 24 hr assay
  pIC50: 4.99
[2]; 72 hr assay
  pIC50: 5.85
USP7
  pIC50: 4.66
[3]
  Mitochondrial priming for apoptosis: more strongly
PBMCs; 24 hr assay, PBMC#1, read-out: IC50 (+/−S.D.) PBMC#1
  pIC50: 4.49
PBMCs; 24 hr assay, PBMC#2, read-out: IC50 (+/−S.D.) PBMC#2
  pIC50: 4.50
PBMCs; 72 hr assay, PBMC#1, read-out: IC50 (+/−S.D.) PBMC#1
  pIC50: 4.78
PBMCs; 72 hr assay, PBMC#2, read-out: IC50 (+/−S.D.) PBMC#2
  pIC50: 4.83
